{"source": "patent US9149038B2", "about": "“4-amino-6-(heterocyclic)picolinates and 6-amino-2-(heterocyclic)pyrimidine-4-carboxylates and their use as herbicides” (Dow AgroSciences LLC, priority 2013, dated 2015)", "key": {"[1]": {"system": "Key Broadleaf Weed and Crop Species", "assay": "Post-Emergent Test II: postemergent herbicidal activity, visual rating after 14 d (Table 7)", "assay_type": "in vivo", "settings": "post-emergence, 336 h; for pest or weed control at 35 g/ha: 35 g ai/ha; for pest or weed control at 70 g/ha: 70 g ai/ha; for pest or weed control at 140 g/ha: 140 g ai/ha", "procedure,_shortened": "(§1)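 Post-emergence foliar spray, 187 L/ha, first/second true leaf stage plants in potting mix (pH 6.0-6.8). Rates: top rate and 2-fold serial dilutions to 1/16×. Solvent-blank controls. Readout: visual % kill at 14 d.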"}, "[2]": {"system": "Key Grass and Sedge Weeds as well as Grass Crops", "assay": "Post-Emergent Test II: postemergent herbicidal activity, visual rating after 14 d (Table 8)", "assay_type": "in vivo", "settings": "post-emergence, 336 h; for pest or weed control at 35 g/ha: 35 g ai/ha; for pest or weed control at 70 g/ha: 70 g ai/ha; for pest or weed control at 140 g/ha: 140 g ai/ha", "procedure,_shortened": "as §1"}, "[3]": {"settings": "ABUTH: velvetleaf (Abutilon theophrasti), read-out: Visual Growth Reduction (%) 14 Days After Application ABUTH"}, "[4]": {"settings": "AMARE: redroot pigweed (Amaranthus retroflexus), read-out: Visual Growth Reduction (%) 14 Days After Application AMARE"}, "[5]": {"settings": "BRSNN: oilseed rape, canola (Brassica napus), read-out: Visual Growth Reduction (%) 14 Days After Application BRSNN"}, "[6]": {"settings": "CHEAL: lambsquarters (Chenopodium album), read-out: Visual Growth Reduction (%) 14 Days After Application CHEAL"}, "[7]": {"settings": "EPHHL: wild poinsettia (Euphorbia heterophylla), read-out: Visual Growth Reduction (%) 14 Days After Application EPHHL"}, "[8]": {"settings": "HELAN: sunflower (Helianthus annuus), read-out: Visual Growth Reduction (%) 14 Days After Application HELAN"}, "[9]": {"settings": "barnyardgrass (Echinochloa crus-galli), read-out: Visual Growth Reduction (%) 14 Days After Application, ECHCG"}, "[10]": {"settings": "giant foxtail (Setaria faberi), read-out: Visual Growth Reduction (%) 14 Days After Application, SETFA"}, "[11]": {"settings": "maize, corn (Zea mays), read-out: Visual Growth Reduction (%) 14 Days After Application, ZEAMX"}, "[12]": {"settings": "rice (Oryza sativa), read-out: Visual Growth Reduction (%) 14 Days After Application, ORYSA"}, "[13]": {"settings": "wheat, spring (Triticum aestivum), read-out: Visual Growth Reduction (%) 14 Days After Application, TRZAS"}, "[14]": {"settings": "yellow nutsedge (Cyperus esculentus), read-out: Visual Growth Reduction (%) 14 Days After Application, CYPES"}}, "note": "Read-outs that look alike come from different tables or passages of the source."}
{"smiles": "Nc1cc(-c2ccc(F)c3c2OC(F)(F)O3)nc(C(=O)O)c1Cl", "note": "[Compound 89]", "values": [{"measurement": "pest or weed control at 35 g/ha", "setting": "[1]; [3]", "result": "0 to 29", "unit": "%"}, {"measurement": "pest or weed control at 70 g/ha", "setting": "[1]; [3]", "result": "75 to 84", "unit": "%"}, {"measurement": "pest or weed control at 140 g/ha", "setting": "[1]; [3]", "result": "75 to 84", "unit": "%"}, {"measurement": "pest or weed control at 35 g/ha", "setting": "[1]; [4]", "result": "95 to 100", "unit": "%"}, {"measurement": "pest or weed control at 70 g/ha", "setting": "[1]; [4]", "result": "95 to 100", "unit": "%"}, {"measurement": "pest or weed control at 140 g/ha", "setting": "[1]; [4]", "result": "95 to 100", "unit": "%"}, {"measurement": "pest or weed control at 35 g/ha", "setting": "[1]; [5]", "result": "85 to 94", "unit": "%"}, {"measurement": "pest or weed control at 70 g/ha", "setting": "[1]; [5]", "result": "85 to 94", "unit": "%"}, {"measurement": "pest or weed control at 140 g/ha", "setting": "[1]; [5]", "result": "95 to 100", "unit": "%"}, {"measurement": "pest or weed control at 35 g/ha", "setting": "[1]; [6]", "result": "95 to 100", "unit": "%"}, {"measurement": "pest or weed control at 70 g/ha", "setting": "[1]; [6]", "result": "95 to 100", "unit": "%"}, {"measurement": "pest or weed control at 140 g/ha", "setting": "[1]; [6]", "result": "95 to 100", "unit": "%"}, {"measurement": "pest or weed control at 35 g/ha", "setting": "[1]; [7]", "result": "0 to 29", "unit": "%"}, {"measurement": "pest or weed control at 70 g/ha", "setting": "[1]; [7]", "result": "0 to 29", "unit": "%"}, {"measurement": "pest or weed control at 140 g/ha", "setting": "[1]; [7]", "result": "0 to 29", "unit": "%"}, {"measurement": "pest or weed control at 35 g/ha", "setting": "[1]; [8]", "result": "60 to 74", "unit": "%"}, {"measurement": "pest or weed control at 70 g/ha", "setting": "[1]; [8]", "result": "60 to 74", "unit": "%"}, {"measurement": "pest or weed control at 140 g/ha", "setting": "[1]; [8]", "result": "75 to 84", "unit": "%"}, {"measurement": "pest or weed control at 35 g/ha", "setting": "[2]; [9]", "result": "0 to 29", "unit": "%"}, {"measurement": "pest or weed control at 70 g/ha", "setting": "[2]; [9]", "result": "0 to 29", "unit": "%"}, {"measurement": "pest or weed control at 140 g/ha", "setting": "[2]; [9]", "result": "0 to 29", "unit": "%"}, {"measurement": "pest or weed control at 35 g/ha", "setting": "[2]; [10]", "result": "0 to 29", "unit": "%"}, {"measurement": "pest or weed control at 70 g/ha", "setting": "[2]; [10]", "result": "0 to 29", "unit": "%"}, {"measurement": "pest or weed control at 140 g/ha", "setting": "[2]; [10]", "result": "0 to 29", "unit": "%"}, {"measurement": "pest or weed control at 35 g/ha", "setting": "[2]; [11]", "result": "0 to 29", "unit": "%"}, {"measurement": "pest or weed control at 70 g/ha", "setting": "[2]; [11]", "result": "0 to 29", "unit": "%"}, {"measurement": "pest or weed control at 140 g/ha", "setting": "[2]; [11]", "result": "0 to 29", "unit": "%"}, {"measurement": "pest or weed control at 35 g/ha", "setting": "[2]; [12]", "result": "0 to 29", "unit": "%"}, {"measurement": "pest or weed control at 70 g/ha", "setting": "[2]; [12]", "result": "0 to 29", "unit": "%"}, {"measurement": "pest or weed control at 140 g/ha", "setting": "[2]; [12]", "result": "0 to 29", "unit": "%"}, {"measurement": "pest or weed control at 35 g/ha", "setting": "[2]; [13]", "result": "0 to 29", "unit": "%"}, {"measurement": "pest or weed control at 70 g/ha", "setting": "[2]; [13]", "result": "0 to 29", "unit": "%"}, {"measurement": "pest or weed control at 140 g/ha", "setting": "[2]; [13]", "result": "0 to 29", "unit": "%"}, {"measurement": "pest or weed control at 35 g/ha", "setting": "[2]; [14]", "result": "0 to 29", "unit": "%"}, {"measurement": "pest or weed control at 70 g/ha", "setting": "[2]; [14]", "result": "0 to 29", "unit": "%"}, {"measurement": "pest or weed control at 140 g/ha", "setting": "[2]; [14]", "result": "0 to 29", "unit": "%"}]}
